The nature of assay [1]: Inhibition of beta amyloid 25-35 fibril formation at 10 uM.
Assay [2] in a line: Inhibition of beta amyloid 25-35 fibril formation.

What is called inhibition is the drop in the measured response relative to a control, in per cent. Read a low inhibition as little suppression. As usually defined, the EC50 is the midpoint of the concentration-response curve. Lower therefore signals an effect from little substance.

Compound `COc1cccc(OC)c1C(=O)OCc1cc(O)ccc1O[C@@H]1O[C@H](CO)[C@@H](O)[C@H](O)[C@H]1O` had an inhibition in assay [1] of 28%.

In turn, `COc1cc(-c2[o+]c3cc(O)cc(O)c3cc2O)cc(OC)c1O` [MALVIDIN] returned an EC50 in assay [2] of 10 µM. The inhibition in assay [1] stood at 46%. Take `O=C(O)/C=C/c1ccc(O)c(O)c1`: the inhibition in assay [1] was determined as 15%. Turning to `OC[C@H]1O[C@@H](Oc2cc3c(O)cc(O)cc3[o+]c2-c2ccc(O)c(O)c2)[C@H](O)[C@@H](O)[C@@H]1O`, in assay [1], the inhibition was determined as 31%.

As to `Oc1cc(O)c2cc(O)c(-c3ccc(O)c(O)c3)[o+]c2c1`, the inhibition in assay [1] worked out at 35%.

In assay [1], `O=C(O)/C=C/c1ccc(O)cc1` showed an inhibition of 17%. Still for that read-out and setting: for `COc1cc(/C=C/c2ccc(O)cc2)cc(OC)c1` the value was 35%.

`COc1cc(-c2[o+]c3cc(O)cc(O)c3cc2O[C@@H]2O[C@H](CO)[C@@H](O)[C@H](O)[C@H]2O)cc(OC)c1O` [OENIN] registered an EC50 in assay [2] of 10 µM. For the same compound, the inhibition in assay [1] amounted to 44%. Compound `Oc1cc(O)c2cc(O)c(-c3cc(O)c(O)c(O)c3)[o+]c2c1` showed an inhibition in assay [1] of 26%. For `Oc1cc(O)c2c(c1)O[C@H](c1cc(O)c(O)c(O)c1)[C@H](O)C2`, the inhibition in assay [1] stood at 18%.

For `COc1cccc(O)c1C(=O)OCc1cc(O)ccc1O[C@@H]1O[C@H](CO)[C@@H](O)[C@H](O)[C@H]1O` [CURCULIGOSIDE B], the EC50 in assay [2] worked out at 8.5 µM. Moreover, in assay [1], the inhibition worked out at 53%.

Take `COc1ccc(O)c(OC)c1C(=O)OCc1ccccc1O[C@@H]1O[C@H](CO)[C@@H](O)[C@H](O)[C@H]1O` [CURCULIGOSIDE D]: the EC50 in assay [2] came out at 9.5 µM. The inhibition in assay [1] is 49%.

`O=C(O)c1ccc(O)cc1` registered an inhibition in assay [1] of 29%. The compound `Oc1ccc(/C=C/c2cc(O)cc(O)c2)cc1` [RESVERATROL] came in with an EC50 in assay [2] of 6 µM. The compound further came in with an inhibition in assay [1] of 63%.

In turn, `COc1cc(/C=C/C(=O)CC(=O)/C=C/c2ccc(O)c(OC)c2)ccc1O` [CURCUMIN] returned an EC50 in assay [2] of 10 µM. In assay [1], the inhibition was found to be 45%. As for `O=C(O[C@@H]1Cc2c(O)cc(O)cc2O[C@@H]1c1ccc(O)c(O)c1)c1cc(O)c(O)c(O)c1`, in assay [1], the inhibition worked out at 13%.

As for `O=C(O[C@@H]1Cc2c(O)cc(O)cc2O[C@@H]1c1cc(O)c(O)c(O)c1)c1cc(O)c(O)c(O)c1`, in assay [1], the inhibition was 13%.
